Source: patent US20260183302A1, “PDK1 REGULATORY COMPOUND AND COMPOSITION CONTAINING THE SAME” (PROVIBIO CO., LTD., priority 2024, published 2026)

Assays:
[1] = system: MRL/lpr mice; experiment: Systemic lupus erythematosus animal model (MRL/lpr); type: in vivo, MRL/MpJ-Faslpr/J mice
Excerpt: The MRL/MpJ-Faslpr/J (hereinafter referred to as “MRL/lpr”) used in this experiment is one of the representative animal models for systemic lupus erythematosus (SLE), known to produce various autoantibodies, including antinuclear antibodies, due to the lpr (lymphoproliferation) gene.
In this invention, the period up to 9 weeks of age was considered the pre-disease stage, and the period after 23 weeks of age was considered the post-disease stage, and efficacy verification experiments using this model were conducted.
Subsequently, female and male MRL/lpr mice were mated at a ratio of 2:1 in the same facility, and the female offspring were administered the compound GO15F of the present invention or vehicle at a dose of 30 mg/kg once daily via intraperitoneal injection or oral administration from the age of 10 weeks until 23 weeks of age.
Urine samples were collected once a week from each individual and used for analytical experiments.
At 23 weeks of age, necropsy was performed on each MRL/lpr mouse, and serum, kidneys, and spleens were isolated and used for analytical experiments. […]
The concentration of anti-nuclear antibodies (Anti-dsDNA Ab) was measured using the ‘Mouse Anti-dsDNA IgG ELISA Kit (Alpha Diagnostic International, Cat. #5120)’ on serum isolated at the time of necropsy in the lupus animal model.
Each mouse serum was diluted to a final concentration of 1/5000 with Working Sample Diluent (WSD) and Low NSB Sample Diluent (LNSD), followed by adding 100 μl of the diluted serum to wells coated with anti-dsDNA and incubating at room temperature for 60 minutes.
The serum separated at the time of necropsy of the lupus animal model was analyzed using the ‘IgG (Total) Mouse Uncoated ELISA Kit (Invitrogen, Cat. #88-50400)’ to measure the concentration of total IgG.
To investigate the effect of GO15F administration on changes in the ratio of immune cells in the spleen of a lupus animal model, the spleens of mice administered each compound were excised, cells were extracted, and the cells were suspended in MACS buffer (autoMACS Washing Solution, Miltenyi Biotec., Cat. #130-092-987).
For flow cytometry analysis, FACS tubes (5 mL round tubes, Falcon, Cat. #352052) were used. To prevent non-specific binding of antibodies, 1 μg/mL of anti-mouse CD16/CD32 (In VivoPlus anti-mouse CD16/CD32, BioXCell, Cat. #BP0307) for 30 minutes to prevent non-specific binding of the antibody, then centrifuge at 1,500 rpm for 5 minutes and resuspend in 100 μL of MACS buffer.
For B cells, each FACS tube was stained with 1 μg/mL of FITC-conjugated anti-B220 antibody (eBioscience™, Cat. #11-0452-81) at 4° C. for 30 minutes, then washed with 2 mL of MACS buffer.
For T cells, each FACS tube was stained with 1 μg/mL PerCP-Cy5.5-conjugated anti-CD3 (Biolegend, Cat. #100218) at 4° C. for 30 minutes.
For macrophages, each FACS tube was stained with 1 μg/mL of PE-conjugated anti-CD11b antibody (Biolegend, Cat. #101207) and PerCP-Cy5.5-conjugated anti-F4/80 (Biolegend, Cat. #123128) and incubated at 4° C. for 30 minutes. The tubes were then washed with 2 mL of MACS buffer. […]
The synthesized cDNA from each mouse was quantified to a concentration of 50 ng using a micro-quantitative spectrophotometer, and qPCR was performed for the cytokines ‘IL-2, IL-6, IL-10, IL-17, TNF-α, IFN-γ’ using a SYBR green probe (CFX96, BIO-RAD).
To investigate the effects of drug administration on renal tissue in MRL/lpr mice, the tissue was fixed in 10% neutral buffered formalin at room temperature, followed by stepwise ethanol penetration for dehydration. The tissue was then embedded in xylene and paraffin.
The blocked tissues were sectioned into 4 μm thick slices using a microtome, followed by deparaffinization, hydration, and staining.
Hematoxylin & Eosin staining, PAS staining, and Masson trichrome staining were performed for pathological evaluation of the tissues. […]

[2] = system: NHDF (Normal Human Dermal Fibroblast) cells; experiment: Anti-aging in doxorubicin/IGF-1 aged NHDF cells (SA-β-gal, Ki-67 FACS); type: cell-based; conditions: Doxorubicin (100 ng/ml) and IGF-1 (100 ng/ml), GO15F 0.01, 1 μM, 7 days
Description: To confirm the anti-aging and rejuvenating effects of the compound GO15F of the present invention, a NHDF (Normal Human Dermal Fibroblast, Promocell) cell model was established by inducing aging with doxorubicin (Doxorubicin), and β-galactosidase activity and Ki-67 expression were analyzed in the cells. First, NHDF cells were seeded at 1×10^4 cells per well in a 12-well plate and stabilized for 24 hours. […] After pre-incubation, the medium was removed, and the cells were cultured for 7 days in medium containing Doxorubicin (100 ng/ml) and IGF-1 (100 ng/ml) with GO15F. During this process, the medium was replaced with fresh medium every 2 days. The cultured cells were washed with PBS, fixed with 1× fixation buffer for 15 minutes, washed again with PBS, and then 300 μL of 1× working SA-β-gal buffer was added to each well. The cells were incubated at 37° C. for 24 hours. After the reaction was terminated, the cells were washed with PBS, and the […] of β-gal-positive cells stained blue was observed and photographed using a light microscope. Additionally, to investigate the effect of the compound (GO15F) of the present invention on proliferation activity in aging-induced NHDF (Normal Human Dermal Fibroblast) cells, Ki-67 expression was measured via FACS analysis. First, NHDF cells were seeded at 1×10^4 cells per well in a 12-well plate and stabilized for 24 hours. […]

[3] = serum at necropsy, ELISA, vs control group

## Nc1ncccc1C(=O)NCCCCCCCCCCCCF [Compound 57, 2-Amino-N-(12-fluoro-dodecyl)-nicotinamide]
[1]; 30 mg/kg once daily, vs control group
  protein concentration in urine: significantly lower
[1]; H&E, PAS, Masson trichrome
  renal pathological tissue staining (glomeruli): glomerular capillary loops were well maintained
[1]; flow cytometry (B220, CD3, CD11b/F4/80)
  immune cells in the spleen (B cells, T cells, macrophages): reduced the increased B cells, T cells, and macrophages
[1]; immunofluorescence staining, vs control group
  IgG deposition in kidney tissue: significantly lower
[1]; [3]
  concentration of anti-dsDNA IgG in the blood: significantly lower
  total IgG concentration in the blood: significantly lower
[2]
  β-galactosidase activity (β-gal-positive cells): number of β-gal-positive cells decreased
